Source: patent US8575215B2, “Treatment of neurodegenerative and cardiovascular disorders” (priority 2001, dated 2013)

Key:
[1] = tested on: cerebellar granule neurons (CGN) culture; test: NO-induced cell death on cultured neurons; assay type: cell-based; conditions: Neuron, cell death induced by nitric oxide, concentration-dependent, read-out: IC50 for blocking nitric oxide-induced neuron cell death
Description: Efficacy of caffeic acid phenethyl ester on treating neurodegenerative disorders as well as other disorders related to NO-induced cell death was assessed by testing its ability to block NO-induced cell death on cultured neurons according to a method described in Du, et al., Proc Natl Acad Sci, 2001, 98, 14669-14674.

[2] = tested on: cerebellar granule neurons (CGN) culture; test: 6-hydroxydopamine-induced neurotoxicity on cultured neurons; assay type: cell-based; conditions: 6-hydroxydopamine used to induce neurotoxicity
[3] = tested on: TH-positive neurons in the substantia nigra pars compacta (SNpc); test: MPTP mouse model, stereological count of TH-positive neurons in SNpc; assay type: in vivo, mice
Description: Caffeic acid phenethyl ester was evaluated for its efficacy in treating a neurodegenerative disorder in mice. Three groups of eight-week-old male C57B1/6 mice (Taconic Farms Inc., Germantown, N.Y.), 5-7 per group, were used. A group of mice were administered for 9 days with caffeic acid phenethyl ester (5 or 20 mg/kg/day in 10% alcohol by oral gavage, or 40 mg/kg/day in 10% alcohol by intraperitoneal injection). As a control, a second group of mice were administered with 10% alcohol free of caffeic acid phenethyl ester. These two groups of mice then received four intraperitoneal injections of 1-methyl-4-phenyl-1,2,3,6-tetrahydropyridine (“MPTP”)-HCl (20 mg/kg of free base) in saline at 2 hour intervals in a single day, as described in Liberatore, et al., Nat Med, 1999, 5, 1403-1409. Seven days after the last administration of MPTP, the mice were anesthetized by halothane inhalation. […] They were then incubated with rabbit polyclonal anti-tyrosine hydroxylase (anti-TH) antibody (1:2,500, CALBIOCHEM, La Jolla, Calif.), goat biotinylated-conjugated polyclonal anti-rabbit antibody (1:250; Vector Laboratories, Burlingame, Calif.), horseradish-peroxidase conjugated avidin/biotin complex (VECTASTAIN ABC Reagent, Vector Laboratories), and successively exposed to diaminobenzidine for TH-immunohistochemistry analysis and stereological quantification of TH-positive neurons. […]

[4] = tested on: striatal levels of dopamine, DOPAC and HVA; test: MPTP mouse model, striatal levels of dopamine and metabolites by HPLC; assay type: in vivo, mice; conditions: 40 mg/kg intraperitoneally, 48 hours after MPTP
Description: Caffeic acid phenethyl ester was evaluated for its efficacy in treating a neurodegenerative disorder in mice. Three groups of eight-week-old male C57B1/6 mice (Taconic Farms Inc., Germantown, N.Y.), 5-7 per group, were used. A group of mice were administered for 9 days with caffeic acid phenethyl ester (5 or 20 mg/kg/day in 10% alcohol by oral gavage, or 40 mg/kg/day in 10% alcohol by intraperitoneal injection). As a control, a second group of mice were administered with 10% alcohol free of caffeic acid phenethyl ester. These two groups of mice then received four intraperitoneal injections of 1-methyl-4-phenyl-1,2,3,6-tetrahydropyridine (“MPTP”)-HCl (20 mg/kg of free base) in saline at 2 hour intervals in a single day, as described in Liberatore, et al., Nat Med, 1999, 5, 1403-1409. The striatal levels of dopamine and its metabolites, dihydroxyphenylacetic acid (DOPAC) and homovanillic acid (HVA), were also determined by HPLC with electrochemical detector. See, e.g., Du, et al., Proc Natl Acad Sci, 2001, 98, 14669-14674.

[5] = tested on: isolated working rabbit heart; test: Isolated working rabbit heart model of ischaemia; assay type: in vivo; conditions: 30 mg/kg intraperitoneal injection, p<0.05
Description: An isolated working rabbit heart model was use to define the cardioprotective effects (function, metabolic and ultrastructure) of caffeic acid phenethyl ester during ischaemia by the method described in Choong, et al., J Cardiovasc Surg (Torino), 1993 October, 34(5):423-433. More specifically, hearts (n=7 for each group) were arrested with and exposed to reinfusion (45 min) throughout the ischaemic period with a cold (4° C.) cardioplegic solution. […] The release of lactate dehydrogenase decreased during 40-minute ischaemic arrest (55.14+/-8.65 vs 19.33+/-7.4 IU/L perfusate for control and treatment, respectively; p<0.05). See […] et al., J Cardiovasc Pharmacol, 1999 October; 34(4):604-611.

effect of compound alone on number of TH-positive neurons ([3]; treatment alone for nine days, no MPTP): did not significantly alter
SMILES: O=C(/C=C/c1ccc(O)c(O)c1)OCCc1ccccc1 [caffeic acid phenethyl ester]
IC50 [1]: ~1000 nM | neuroprotective effect against 6-hydroxydopamine-induced neurotoxicity [2]: neuroprotective effect | number of TH-positive neurons in SNpc, as compared with saline-only mice ([3]; C57B1/6 mice, 5 or 20 mg/kg/day oral or 40 mg/kg/day i.p. for 9 days, then MPTP 4x20 mg/kg, 7 days after MPTP, MPTP control approximately 49%): up to 100% | MPTP-induced reduction of striatal HVA level ([4]; MPTP control decreased by 35%): 16% | MPTP-induced reduction of striatal DOPAC level ([4]; MPTP control decreased by 46%): −2% | MPTP-induced reduction of striatal dopamine level ([4]; MPTP control decreased by 62%): 3% | postischaemic recovery of cardiac output ([5]; n=7, control 71.48+/−9.66%): 90.83+/−3.2% | release of lactate dehydrogenase during 40-minute ischaemic arrest ([5]; control 55.14+/−8.65): 19.33+/−7.4 IU/L perfusate
